According to patent US8486948B2, “Piperazinodihydrothienopyrimidine derivatives” (Boehringer Ingelheim International GmbH, priority 2007, dated 2013):
Counter-ions that a name gives are not always drawn.

Biological target: PDE4B (Homo sapiens, UniProt Q07343)
Test: Scintillation Proximity (SPA) assay, inhibition of PDE4B at 1 μM
Format: biochemical
Details: test substance 1 μM, one hour incubation with [H3]-cAMP at 30° C.
Method: The inhibitions (in %) at 1 μM of the individual Example substances are included in the following Tables of Examples and were determined as follows:
The Scintilation Proximity (SPA) Assays (GE Healthcare, No. TRKQ7090) make use of the different affinities of cyclic 3″-5″-adenosine monophosphate (cAMP, low affinity) and linear 5′-adenosine monophosphate (AMP, high affinity) for yttrium silicate scintillator beads. The cAMP specific phosphodiesterase (PDE) PDE4B cleaves the 3′-phosphoester bond of the tritium-labelled [H3]-cAMP to form the [H3]-5′-AMP. Because of its higher affinity for the scintillator beads this [H3]-AMP accumulates on the beads and causes scintillation events (flashes of light) which are measured in a Wallac Microbeta Scintillation Counter.
The test starts with one hour's incubation of [H3]-cAMP with the PDE4B enzyme in assay buffer at 30° C., once with the Example substance that is to be tested (in a concentration of 1 μM) and once without the Example substance that is to be tested. After this incubation the reaction is stopped by the addition of the beads. The beads are given an opportunity to settle over the next 45 minutes, then they are measured in the Scintillation Counter. If the substance is capable of inhibiting the enzymatic activity of the PDE4B, less [H3]-AMP is formed during the incubation phase and fewer scintillation events can be measured.

Chain of PDE4B (Q07343 whole entry, species assumed): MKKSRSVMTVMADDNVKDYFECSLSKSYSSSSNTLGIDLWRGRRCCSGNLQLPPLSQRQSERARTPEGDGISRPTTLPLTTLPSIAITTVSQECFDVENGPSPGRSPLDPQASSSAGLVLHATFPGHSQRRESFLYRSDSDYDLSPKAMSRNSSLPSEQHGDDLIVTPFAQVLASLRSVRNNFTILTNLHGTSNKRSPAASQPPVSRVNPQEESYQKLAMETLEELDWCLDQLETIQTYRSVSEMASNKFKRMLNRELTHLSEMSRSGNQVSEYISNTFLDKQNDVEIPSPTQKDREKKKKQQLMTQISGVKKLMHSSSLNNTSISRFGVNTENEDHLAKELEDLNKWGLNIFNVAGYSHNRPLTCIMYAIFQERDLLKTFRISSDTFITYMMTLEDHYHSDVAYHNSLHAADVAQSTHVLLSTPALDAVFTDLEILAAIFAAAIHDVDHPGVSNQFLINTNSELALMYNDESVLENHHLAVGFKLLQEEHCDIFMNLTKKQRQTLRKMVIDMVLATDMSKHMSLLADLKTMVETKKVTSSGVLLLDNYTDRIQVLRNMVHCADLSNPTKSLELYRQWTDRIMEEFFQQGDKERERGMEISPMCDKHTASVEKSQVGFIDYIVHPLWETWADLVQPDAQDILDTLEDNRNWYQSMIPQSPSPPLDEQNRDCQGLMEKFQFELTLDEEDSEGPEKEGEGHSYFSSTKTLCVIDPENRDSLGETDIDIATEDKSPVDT

SMILES	inhibition at 1 µM (Table A) [%]	also measured
[O-][S+]1CCc2nc(N3CC4CC3CN4c3ccc(Cl)cc3)nc(Nc3cccc(F)c3)c21 (stereo not drawn) [Example 7]	95	
CC(C)[C@H](CO)Nc1nc(N2CCN(c3ccc(Cl)cc3)C[C@H]2C)nc2c1[S+]([O-])CC2 (stereo partly drawn) [Example 1, (R)-2-{2-[(R)-4-(4-chlorophenyl)-2-methylpiperazin-1-yl]-5-oxo-6,7-dihydro-5H-5λ^4-thieno[3,2-d]pyrimidin-4-ylamino}-3-methylbutan-1-ol]	84	
[O-][S+]1CCc2nc(N3CC4CC3CN4c3ccc(Cl)cc3)nc(NC3(CO)CC3)c21 (stereo not drawn) [Example 8]	95	
C[C@H]1CN(c2ccc(Cl)cc2)CCN1c1nc2c(c(N[C@H]3CCC(=O)N(C)C3)n1)[S+]([O-])CC2 (stereo partly drawn) [Example 3]	96	
[O-][S+]1CCc2nc(N3C[C@H]4CC3CN4c3ccc(Br)cc3)nc(Nc3cccc(F)c3)c21 (stereo partly drawn) [Example 21, {2-[5-(4-bromophenyl)-2,5-diazabicyclo[2,2,1]hept-2-yl]-5-oxo-6,7-dihydro-5H-5λ^4-thieno[3,2-d]pyrimidin-4-yl}-(3-fluorophenyl)-amine]	95	
CC(C)[C@H](CO)Nc1nc(N2CCn3cnnc3C2)nc2c1[S+]([O-])CC2 (stereo partly drawn) [Example 45, (R)-2-[2-(5,6-DIHYDRO-8H-[1,2,4]TRIAZOLO[4,3-A]PYRAZIN-7-YL)-5-OXO-6,7-DIHYDRO-5H-5λ^4-THIENO[3,2-D]PYRIMIDIN-4-YLAMINO]-3-METHYL-BUTAN-1-OL TRIFLUOROACETATE]		inhibition at 1 µM (Table C): 55%
[O-][S+]1CCc2nc(N3CC4CC3CN4c3ccc(Br)cc3)nc(NC3(CO)CC3)c21 (stereo not drawn) [Example 22]	95	
[O-][S+]1CCc2nc(N3CCn4c(nnc4-c4ccc(F)cc4)C3)nc(NC3CCOCC3)c21 (stereo not drawn) [Example 35]		inhibition at 1 µM (Table C): 94%
CCOC(=O)c1cn2c(n1)CN(c1nc3c(c(NC4(CO)CC4)n1)[S+]([O-])CC3)CC2 (stereo not drawn) [Example 30]		inhibition at 1 µM (Table C): 95%
[O-][S+]1CCc2nc(N3CCn4c(Cc5ccc(Cl)c(Cl)c5)nnc4C3)nc(Nc3cccc(F)c3)c21 (stereo not drawn) [Example 40, {2-[3-(3,4-dichlorobenzyl)-5,6-dihydro-8H-[1,2,4]triazolo[4,3-a]pyrazin-7-yl]-5-oxo-6,7-dihydro-5H-5λ^4-thieno[3,2-d]pyrimidin-4-yl}-(3-fluorophenyl)-amine]		inhibition at 1 µM (Table C): 94%
[O-][S+]1CCc2nc(N3CCn4c(nnc4-c4ccc(F)cc4)C3)nc(NC3(CO)CC3)c21 (stereo not drawn) [Example 31]		inhibition at 1 µM (Table C): 93%
Cc1nn(C)cc1C(C)NC(=O)c1cn2c(n1)CN(c1nc3c(c(NC4CCOCC4)n1)[S+]([O-])CC3)CC2 (stereo not drawn) [Example 52]		inhibition at 1 µM (Table D): 93%
[O-][S+]1CCc2nc(N3CCn4c(Cc5ccc(Cl)c(Cl)c5)nnc4C3)nc(NC3CCOCC3)c21 (stereo not drawn) [Example 36]		inhibition at 1 µM (Table C): 93%
CCOC(=O)c1cn2c(n1)CN(c1nc3c(c(N[C@H]4CCC(=O)N(C)C4)n1)[S+]([O-])CC3)CC2 (stereo partly drawn) [Example 46]		inhibition at 1 µM (Table D): 97%
CN1C[C@@H](Nc2nc(N3C[C@H]4CC3CN4c3ccc(Cl)cc3)nc3c2[S+]([O-])CC3)CCC1=O (stereo partly drawn) [Example 9, (S)-5-{2-[5-(4-chlorophenyl)-2,5-diazabicyclo[2,2,1]hept-2-yl]-5-oxo-6,7-dihydro-5H-5λ^4-thieno[3,2-d]pyrimidin-4-ylamino}-1-methylpiperidin-2-one]	96	
[O-][S+]1CCc2nc(N3CCn4cnnc4C3)nc(NC3(CO)CC3)c21 (stereo not drawn) [Example 33, {1-[2-(5,6-DIHYDRO-8H-[1,2,4]TRIAZOLO[4,3-A]PYRAZIN-7-YL)-5-OXO-6,7-DIHYDRO-5H-5λ^4-THIENO[3,2-D]PYRIMIDIN-4-YLAMINO]-CYCLOPROPYL}-METHANOL TRIFLUORACETATE]		inhibition at 1 µM (Table C): 75%
CCOC(=O)c1cn2c(n1)CN(c1nc3c(c(Nc4cccc(F)c4)n1)[S+]([O-])CC3)CC2 (stereo not drawn) [Example 38]		inhibition at 1 µM (Table C): 95%
CCOC(=O)c1cn2c(n1)CN(c1nc3c(c(N[C@@H](CO)C(C)C)n1)[S+]([O-])CC3)CC2 (stereo partly drawn) [Example 42]		inhibition at 1 µM (Table C): 94%

SMILES	inhibition at 1 µM (Table A) [%]	also measured
CN1C[C@@H](Nc2nc(N3CCn4c(nnc4-c4ccc(F)cc4)C3)nc3c2[S+]([O-])CC3)CCC1=O (stereo partly drawn) [Example 47]		inhibition at 1 µM (Table D): 96%
[O-][S+]1CCc2nc(N3CC4CC3CN4c3ccc(Cl)cc3)nc(NC3CCOCC3)c21 (stereo not drawn) [Example 6]	95	
O=C(c1cn2c(n1)CN(c1nc3c(c(NC4CCOCC4)n1)[S+]([O-])CC3)CC2)N(C1CCOCC1)C1CC1 (stereo not drawn) [Example 55]		inhibition at 1 µM (Table D): 93%
Cc1nn(C)cc1CNC(=O)c1cn2c(n1)CN(c1nc3c(c(NC4CCOCC4)n1)[S+]([O-])CC3)CC2 (stereo not drawn) [Example 57]		inhibition at 1 µM (Table D): 94%
C[C@H]1CN(c2ccc(Cl)cc2)CCN1c1nc2c(c(Nc3cccc(F)c3)n1)[S+]([O-])CC2 (stereo partly drawn) [Example 10]	94	
[O-][S+]1CCc2nc(N3C[C@H]4CC3CN4c3ccc(F)cc3)nc(NC3(CO)CC3)c21 (stereo partly drawn) [Example 24, (1-{2-[5-(4-fluorophenyl)-2,5-diazabicyclo[2,2,1]hept-2-yl]-5-oxo-6,7-dihydro-5H-5λ^4-thieno[3,2-d]pyrimidin-4-ylamino}-cyclopropyl)-methanol]	93	
CN(C(=O)c1cn2c(n1)CN(c1nc3c(c(NC4CCOCC4)n1)[S+]([O-])CC3)CC2)C1CC1 (stereo not drawn) [Example 50]		inhibition at 1 µM (Table D): 93%
[O-][S+]1CCc2nc(N3C4CCC3CN(c3ccc(Br)cc3)C4)nc(NC3CCOCC3)c21 (stereo not drawn) [Example 27]	97	
[O-][S+]1CCc2nc(N3CCn4cnnc4C3)nc(NC3CCOCC3)c21 (stereo not drawn) [Example 37, [2-(5,6-DIHYDRO-8H-[1,2,4]TRIAZOLO[4,3-A]PYRAZIN-7-YL)-5-OXO-6,7-DIHYDRO-5H-5λ^4-THIENO[3,2-D]PYRIMIDIN-4-YL]-(TETRAHYDRO-PYRAN-4-YL)-AMINE TRIFLUOROACETATE]		inhibition at 1 µM (Table C): 87%
CN1CCC(N(C)C(=O)c2cn3c(n2)CN(c2nc4c(c(NC5CCOCC5)n2)[S+]([O-])CC4)CC3)CC1 (stereo not drawn) [Example 49]		inhibition at 1 µM (Table D): 93%
CN(C(=O)c1cn2c(n1)CN(c1nc3c(c(NC4CCOCC4)n1)[S+]([O-])CC3)CC2)C1CCOCC1 (stereo not drawn) [Example 54]		inhibition at 1 µM (Table D): 94%
O=C(c1cn2c(n1)CN(c1nc3c(c(NC4CCOCC4)n1)[S+]([O-])CC3)CC2)N1CCOCC1 (stereo not drawn) [Example 48, Morpholin-4-yl-{7-[5-oxo-4-(tetrahydropyran-4-ylamino)-6,7-dihydro-5H-5λ^4-thieno[3,2-d]pyrimidin-2-yl]-5,6,7,8-tetrahydroimidazo[1,2-a]pyrazin-2-yl}-methanone]		inhibition at 1 µM (Table D): 93%
CC(C)[C@H](CO)Nc1nc(N2CCn3c(Cc4ccc(Cl)c(Cl)c4)nnc3C2)nc2c1[S+]([O-])CC2 (stereo partly drawn) [Example 44]		inhibition at 1 µM (Table C): 78%
[O-][S+]1CCc2nc(N3C4CC[C@@H]3CN(c3ccc(Br)cc3)C4)nc(NC3(CO)CC3)c21 (stereo partly drawn) [Example 28, (1-{2-[3-(4-bromophenyl)-3,8-diazabicyclo[3.2.1]oct-8-yl]-5-oxo-6,7-dihydro-5H-5λ^4-thieno[3,2-d]pyrimidin-4-ylamino}-cyclopropyl)-methanol trifluoroacetate]	97	
[O-][S+]1CCc2nc(N3CCn4c(nnc4-c4ccc(F)cc4)C3)nc(Nc3cccc(F)c3)c21 (stereo not drawn) [Example 39, (3-fluorophenyl)-{2-[3-(4-fluorophenyl)-5,6-dihydro-8H-[1,2,4]triazolo[4,3-a]pyrazin-7-yl]-5-oxo-6,7-dihydro-5H-5λ^4-thieno[3,2-d]pyrimidin-4-yl}-amine]		inhibition at 1 µM (Table C): 95%
C[C@H]1CN(c2ccc(Cl)cc2)CCN1c1nc2c(c(NC3(CO)CC3)n1)[S+]([O-])CC2 (stereo partly drawn) [Example 5]	95	
CC(C)(NC(=O)c1cn2c(n1)CN(c1nc3c(c(NC4CCOCC4)n1)[S+]([O-])CC3)CC2)c1ccncc1 (stereo not drawn) [Example 53]		inhibition at 1 µM (Table D): 94%
[O-][S+]1CCc2nc(N3CC4CC3CN4c3ccc(F)cc3)nc(NC3CCOCC3)c21 (stereo not drawn) [Example 26]	94	

More lines, main results first:

inhibition at 1 µM (Table A) [%]	SMILES	also measured
95	O=C1CN(c2nc3c(c(Nc4cccc(F)c4)n2)[S+]([O-])CC3)CCN1c1ccccc1 (stereo not drawn) [Example 19]	
94	[O-][S+]1CCc2nc(N3CC4CC3CN4c3cccc(F)c3)nc(NC3CCOCC3)c21 (stereo not drawn) [Example 25]	
96	CN1C[C@@H](Nc2nc(N3CCN(c4ccccc4)C(=O)C3)nc3c2[S+]([O-])CC3)CCC1=O (stereo partly drawn) [Example 17]	
86	O=C1CN(c2nc3c(c(NC4(CO)CC4)n2)[S+]([O-])CC3)CCN1c1ccccc1 (stereo not drawn) [Example 16]	
93	O=C1CN(c2nc3c(c(NC4CCOCC4)n2)[S+]([O-])CC3)CCN1c1ccc(Br)cc1 (stereo not drawn) [Example 12]	
92	O=C1CN(c2nc3c(c(NC4CCOCC4)n2)[S+]([O-])CC3)CCN1c1cccc(Br)c1 (stereo not drawn) [Example 14]	
93	O=C1CN(c2nc3c(c(NC4CCOCC4)n2)[S+]([O-])CC3)CCN1c1ccccc1 (stereo not drawn) [Example 18]	
97	[O-][S+]1CCc2nc(N3C[C@H]4CC3CN4c3nc4ccccc4o3)nc(NC3CCOCC3)c21 (stereo partly drawn) [Example 29, [2-(5-benzoxazol-2-yl-2,5-diazabicyclo[2,2,1]hept-2-yl)-5-oxo-6,7-dihydro-5H-5λ^4-thieno[3,2-d]pyrimidin-4-yl]-(tetrahydropyran-4-yl)-amine]	
77	CC(C)[C@H](CO)Nc1nc(N2CCN(c3ccccc3)C(=O)C2)nc2c1[S+]([O-])CC2 (stereo partly drawn) [Example 15]	
